Consider 29 compounds from patent publication US6670363B1, “Azole compounds as therapeutic agents for fungal infections” (Ranbaxy Laboratories Limited, priority 2000, dated 2003).

≈ marks a conversion by molar mass, not a printed value. Bounds are passed on as bounds.

This experiment deals with A. fumigatus s 1008. The experiment in a line: In vitro MIC, NCCLS M38P broth method (RPMI 1640/MOPS pH7), Aspergillus fumigatus. It is filed as cell-based. The note with it: A. fumigatus s 1008.
In the case of “3-{4-[4-(4-chlorophenyl-N-ethylureido)-piperazinyl]-phenoxy}-2-(2,4-difluorophenyl)-1-(1H-1,2,4-triazolyl)-2-ethoxy-3-propylamine [Compound 74]”, the “MIC (υg/ml) (A. fumigatus s 1008)” value is >12.5 µg/mL.
On to “3-{4-[4-(4-chlorophenyl-N-ethylureido)-piperazinyl]-phenoxy}-2-(2,4-difluorophenyl)-1-(1H-1,2,4-triazolyl)-propan-3-amino-2-ol [Compound 73]”, for which the “MIC (υg/ml) (A. fumigatus s 1008)” value is >12.5 µg/mL.
`Cc1ccc(NC(=S)NN2CCN(c3ccc(OCC(O)(Cn4cncn4)c4ccc(F)cc4F)cc3)CC2)cc1` (centres unmarked) [Compound 64, 3-{4-[4-(p-Tolylthioureido)piperazinyl]phenoxy}-2-(2,4-difluorophenyl)-1-(1H-1,2,4-trizol-1-yl)-propan-2-ol]: the “MIC (υg/ml) (A. fumigatus s 1008)” value was 3.12 µg/mL (≈ 5.38 µM).
Turning to `CC(C)NC(=S)NN1CCN(c2ccc(OCC(O)(Cn3cncn3)c3ccc(F)cc3F)cc2)CC1` (centres unmarked) [Compound 65, 3-{4-[4-(Isopropylaminothiocarbonylamino)piperazinyl]phenoxy}-2-(2,4-difluorophenyl)-1-(1H-1,2,4-triazol-1-yl)-propan-2-ol], the “MIC (υg/ml) (A. fumigatus s 1008)” value was >12.5 µg/mL.
Consider `OC(COc1ccc(N2CCN(NC(=S)Nc3ccc(Cl)cc3)CC2)cc1)(Cn1cncn1)c1ccc(F)cc1F` (centres unmarked) [Compound 66, 3-{4-[4-(4-Chlorophenylthioureido)piperazinyl]phenoxy}-2-(2,4-difluorophenyl)-1-(1H-1,2,4-triazol-1-yl)-propan-2-ol], for which the “MIC (υg/ml) (A. fumigatus s 1008)” value was >12.5 µg/mL.
In the case of `O=C(Nc1ccc(Cl)cc1)NN1CCN(c2ccc(OCC(O)(Cn3cncn3)c3ccc(F)cc3F)cc2)CC1` (centres unmarked) [Compound 67, 3-{4-[4-(4-Chlorophenylureido)piperazinyl]phenoxy}-2-(2,4-difluorophenyl)-1-(1H-1,2,4-triazol-1-yl)-propan-2-ol], the “MIC (υg/ml) (A. fumigatus s 1008)” value came out at 6.25 µg/mL (≈ 10.7 µM).
For `OC(COc1ccc(N2CCN(NC(=S)Nc3cccc4ccccc34)CC2)cc1)(Cn1cncn1)c1ccc(F)cc1F` (centres unmarked) [Compound 68, 3-{4-[4-(1-Napthylthioureido)piperazinyl]phenoxy}-2-(2,4-difluorophenyl)-1-(1H-1,2,4-triazol-1-yl)-propan-2-ol], the “MIC (υg/ml) (A. fumigatus s 1008)” value was >12.5 µg/mL.
With `O=C(Nc1cccc2ccccc12)NN1CCN(c2ccc(OCC(O)(Cn3cncn3)c3ccc(F)cc3F)cc2)CC1` (centres unmarked) [Compound 69, 3-{4-[4-(1-Napthylureido)piperazinyl]phenoxy}-2-(2,4-difluorophenyl)-1-(1H-1,2,4-triazol-1-yl)-propan-2-ol] the figure was >12.5 µg/mL; with `OC(COc1ccc(N2CCN(NC(=S)Nc3ccc(C(F)(F)F)cc3)CC2)cc1)(Cn1cncn1)c1ccc(F)cc1F` (centres unmarked) [Compound 70, 3-{4-[4-(4-Trifluoromethylphenylthioureido)piperazinyl]phenoxy}-2-(2,4-difluorophenyl)-1-(1H-1,2,4-triazol-1-yl)-propan-2-ol], >12.5 µg/mL; with `COc1ccc(NC(=O)NN2CCN(c3ccc(OCC(O)(Cn4cncn4)c4ccc(F)cc4F)cc3)CC2)cc1` (centres unmarked) [Compound 71, 3-{4-[4-(4-Methoxyphenylureido)piperazinyl]phenoxy}-2-(2,4-difluorophenyl)-1-(1H-1,2,4-triazol-1-yl)-propan-2-ol], >12.5 µg/mL.
Consider `O=C(Nc1ccc(Cl)cc1Cl)NN1CCN(c2ccc(OCC(O)(Cn3cncn3)c3ccc(F)cc3F)cc2)CC1` (centres unmarked) [Compound 72, 3-{4-[4-(2,4-Dichlorophenylureido)piperazinyl]phenoxy}-2-(2,4-difluorophenyl)-1-(1H-1,2,4-triazol-1-yl)-propan-2-ol], for which the “MIC (υg/ml) (A. fumigatus s 1008)” value was >12.5 µg/mL.
As to `COC(COc1ccc(N2CCN(NC(=O)N(C)c3ccc(Cl)cc3)CC2)cc1)(Cn1cncn1)c1ccc(F)cc1F` (centres unmarked) [Compound 75, 3-{4-[4-N-(4-Chlorophenyl)-N-(methylureido)-piperazinyl]-phenoxy}-2-(2,4-difluorophenyl)-1-(1H-1,2,4-triazolyl)-2-methoxypropane], the “MIC (υg/ml) (A. fumigatus s 1008)” value was >12.5 µg/mL.
As to `Nc1ccc(NC(=O)NN2CCN(c3ccc(OCC(O)(Cn4cncn4)c4ccc(F)cc4F)cc3)CC2)cc1` (centres unmarked) [Compound 76, 3-{4-[4-(4-Aminophenylureido)piperazinyl]phenoxy}-2-(2,4-difluorophenyl)-1-(1H-1,2,4-triazol-1-yl)-propan-2-ol], the “MIC (υg/ml) (A. fumigatus s 1008)” value was >12.5 µg/mL.
As to `C[C@@H](Oc1ccc(N2CCN(NC(=O)Nc3ccc(Cl)cc3)CC2)cc1)[C@](O)(Cn1cncn1)c1ccc(F)cc1F` [Compound 77, [1R2R/1S2S] 1-{4-[4-(4-Chlorophenylureido)-piperazinyl]-phenoxy}-2-(2,4-difluorophenyl)-1-methyl-3-(1H-1,2,4-triazolyl)-propan-2-ol], the “MIC (υg/ml) (A. fumigatus s 1008)” value amounted to 2 µg/mL (≈ 3.34 µM).
The figure for `CC(Oc1ccc(N2CCN(NC(=O)Nc3ccc(Cl)cc3)CC2)cc1)C(O)(Cn1cncn1)c1ccc(F)cc1F` (centres unmarked) [Compound 78, [1R2S/1S2R] 1-{4-[4-(4-Chlorophenylureido)-piperazinyl]-phenoxy}2-(2,4-difluorophenyl)-1-methyl-3-(1H-1,2,4-triazolyl)-propan-2-ol] is 0.5 µg/mL (≈ 0.836 µM); for `CC(Oc1ccc(N2CCN(NC(=O)Nc3ccc(C(F)(F)F)cc3)CC2)cc1)C(O)(Cn1cncn1)c1ccc(F)cc1F` (centres unmarked) [Compound 79, 1-{4-[4-(4-Trifluoromethylphenylureido)piperazinyl]phenoxy}-2-(2,4-difluorophenyl)-1-methyl-3-(1H-1,2,4-triazol-1-yl)-propan-2-ol] it is 8 µg/mL (≈ 12.7 µM); for `O=C(Nc1ccccc1)NN1CCN(c2ccc(OCC(O)(Cn3cncn3)c3ccc(F)cc3F)cc2)CC1` (centres unmarked) [Compound 80, 3-{4-[4-(Phenylureido)-piperazinyl]phenoxy}-2-(2,4-difluorophenyl)-1-(1H-1,2,4-triazol-1-yl)-propan-2-ol] it is >12.5 µg/mL.
Consider `CN(CC(O)(Cn1cncn1)c1ccc(F)cc1F)c1ccc(NC(=S)Nc2ccccc2)cc1` (centres unmarked) [Compound 81, 3-{N-[4-(Phenylthioureido)-phenyl]-N-methyl}-2-(2,4-Difluorophenyl)-1-(1H-1,2,4-triazolyl)-propan-3-amino-2-ol], for which the “MIC (υg/ml) (A. fumigatus s 1008)” value is >12.5 µg/mL.
`CC(C)NC(=S)Nc1ccc(N(C)CC(O)(Cn2cncn2)c2ccc(F)cc2F)cc1` (centres unmarked) [Compound 82, 3-{N-[4-(Isopropylthioureido)-phenyl]-N-methyl}-2-(2,4-difluorophenyl)-1-(1H-1,2,4-triazolyl)-propan-3-amino-2-ol]: the “MIC (υg/ml) (A. fumigatus s 1008)” value was >12.5 µg/mL.
Regarding `Cc1ccc(NC(=S)Nc2ccc(N(C)CC(O)(Cn3cncn3)c3ccc(F)cc3F)cc2)cc1` (centres unmarked) [Compound 83, 3-{N-[4-(p-Tolylthioureido)-phenyl]-N-methyl}-2-(2,4-difluorophenyl)-1-(1H-1,2,4-triazolyl)-propan-3-amino-2-ol], the “MIC (υg/ml) (A. fumigatus s 1008)” value was >12.5 µg/mL.
With `CN(CC(O)(Cn1cncn1)c1ccc(F)cc1F)c1ccc(NC(=O)Nc2ccc(F)cc2)cc1` (centres unmarked) [Compound 84, 3-{N-[4-(p-Fluorophenylureido)-phenyl]-N-methyl}-2-(2,4-difluorophenyl)-1-(1H-1,2,4-triazolyl)-propan-3-amino-2-ol] the figure was >12.5 µg/mL.
The figure for `CN(CC(O)(Cn1cncn1)c1ccc(F)cc1F)c1ccc(NC(=O)Nc2ccc([N+](=O)[O-])cc2)cc1` (centres unmarked) [Compound 85, 3-{N-[4-(p-nitrophenylureido)-phenyl]-N-methyl}-2-(2,4-Difluorophenyl)-1-(1H-1,2,4-triazolyl)-propan-3-amino-2-ol] is >12.5 µg/mL.
On to `CN(CC(O)(Cn1cncn1)c1ccc(F)cc1F)c1ccc(NC(=O)Nc2ccc(Cl)cc2)cc1` (centres unmarked) [Compound 86, 3-{N-[4-(p-Chlorophenylureido)-phenyl]-N-methyl}-2-(2,4-difluorophenyl)-1-(1H-1,2,4-triazolyl)-propan-3-amino-2-ol], for which the “MIC (υg/ml) (A. fumigatus s 1008)” value was >12.5 µg/mL.
For `CN(CC(O)(Cn1cncn1)c1ccc(F)cc1F)c1ccc(NC(=O)Nc2ccc(CC(=O)O)cc2)cc1` (centres unmarked) [Compound 87], the “MIC (υg/ml) (A. fumigatus s 1008)” value is >12.5 µg/mL.
As for `COC(=O)Cc1ccc(NC(=O)Nc2ccc(N(C)CC(O)(Cn3cncn3)c3ccc(F)cc3F)cc2)cc1` (centres unmarked) [Compound 88, 3-{N-[4-((2-Methoxy-2-oxoethyl)-phenylureido)-phenyl]-N-methyl}-2-(2,4-difluorophenyl)-1-(1H-1,2,4-triazolyl)-propan-3-amino-2-ol], the “MIC (υg/ml) (A. fumigatus s 1008)” value was >12.5 µg/mL.
For `CN(CC(O)(Cn1cncn1)c1ccc(F)cc1F)c1ccc(NC(=O)Nc2ccc(NC(=S)Nc3ccc(Cl)cc3)cc2)cc1` (centres unmarked) [Compound 89, 3-{N-[4-((p-Chlorophenylthioureido)-phenylureido)-phenyl]-N-methyl}-2-(2,4-difluorophenyl)-1-(1H-1,2,4-triazolyl)-propan-3-amino-2-ol], the “MIC (υg/ml) (A. fumigatus s 1008)” value is >12.5 µg/mL.
In the case of `CC(C)NC(=S)NN1CCN(c2ccc(-n3cnn(CC(O)(Cn4cncn4)c4ccc(F)cc4F)c3=O)cc2)CC1` (centres unmarked) [Compound 90, 2-[2-(2,4-Difluorophenyl)-2-hydroxy-3-(1H-1,2,4-triazol-1-yl)propyl]-4-{4-[4-(isopropylthiouredio)-1-piperazinyl]phenyl}-3-(2H,4H)-1,2,4-triazolone], the “MIC (υg/ml) (A. fumigatus s 1008)” value is >12.5 µg/mL.
Turning to `O=C(Nc1ccc(Cl)cc1)NN1CCN(c2ccc(-n3cnn(CC(O)(Cn4cncn4)c4ccc(F)cc4F)c3=O)cc2)CC1` (centres unmarked) [Compound 91, 2-[2-(2,4-Difluorophenyl)-2-hydroxy-3-(1H-1,2,4-triazol-1-yl)propyl]-4-{4-[4-(4-chlorophenyluredio)-1-piperazinyl]phenyl}-3-(2H,4H)-1,2,4-triazolone], the “MIC (υg/ml) (A. fumigatus s 1008)” value was >12.5 µg/mL.
On to `O=c1n(-c2ccc(N3CCN(NC(=S)Nc4ccc(Cl)cc4)CC3)cc2)cnn1CC(O)(Cn1cncn1)c1ccc(F)cc1F` (centres unmarked) [Compound 92, 2-[2-(2,4-Difluorophenyl)-2-hydroxy-3-(1H-1,2,4-triazol-1-yl)propyl]-4-{4-[4-(4-chlorophenylthiouredio)-1-piperazinyl]phenyl}-3-(2H,4H)-1,2,4-triazolone], for which the “MIC (υg/ml) (A. fumigatus s 1008)” value was >12.5 µg/mL.
